Converted amounts (≈) assume the structure as drawn. “And” between values parts separate entries of the source, which are not always exact repeats. Identical values can stand only once.
How the values were obtained:
Streptococcus mutans = assay: Antimicrobial microplate assay (MIC), S. mutans; assay type: cell-based; conditions: two values per compound
Excerpt: (§1) Microbial strains: Escherichia coli, pseudomonas aeruginosa, Staphylococcus aureus, Streptococcus mutans and Candida albicans were collected from the microbial culture collection of Biopharmaceutical Products Research Department, Genetic Engineering and Biotechnology Research Institute, SRTA-City, New Borg El-Arab city, Alexandria, Egypt.
(§2) The antimicrobial activity of coumarin hybrids samples were checked against different multiple drug resistant microorganisms (Escherichia coli, pseudomonas aeruginosa, Staphylococcus aureus and Streptococcus mutans and Candida albicans) using various concentrations (30 to 100 µM). An aliquot of 100.0 µl of each sample concentration was added to an equal volume of each microbial growth dilution (about 10^6 CFU/ml) and inoculated into 96 well plate. Furthermore, 100.0 µl of LB media was added to 100.0 µl of microbial growth to set as the negative control group. After that, the inoculated plates were incubated overnight at 37 °C then, the microbial turbidity was measured using automated ELIZA microplate reader (BINDER BIOTECK E LX 800) adjusted at 620 nm. The microbial inhibition percentage after treatments were quantified using the following equation:1 Inhibition percentage=A-A1/A0×100. where, A: the treatment group absorbance, A1: the blank absorbance, and A0: the control group absorbance.

Escherichia coli = assay: Antimicrobial microplate assay (MIC), E. coli; assay type: cell-based; conditions: two values per compound
Excerpt: as §1, §2

Staphylococcus aureus = assay: Antimicrobial microplate assay (MIC), S. aureus; assay type: cell-based; conditions: Staph. aureus, two values per compound
Excerpt: as §1, §2

HepG-2 = assay: MTT anti-proliferative assay, HepG-2; assay type: cell-based, human; conditions: for IC50: HepG-2, MTT, 2 days; for Selective index: SI = IC50 normal cells (WISH)/IC50 HepG-2
Excerpt: (§3) Cell lines; WISH cell line (Human amnion-derived normal epithelial cells, CCL-25), MDA-MB-231 cell line (Human, mammary gland/breast adenocarcinoma, HTB-26), CaCo-2 cell line (Human Colorectal adenocarcinoma, epithelial cells, HTB-37), A549 cell line (Human Lung adenocarcinoma, epithelial cells, CCL-185) cell lines and HepG-2 (liver hepatocellular carcinoma, HEPG2, HB-8065) were obtained from ATCC, originally with license and serial numbers as mentioned.
(§4) The safety assays of coumarin hybrids on noncancerous cell lines and their anticancer effects on cancerous cells were gauged utilizing MTT-assay (Promega) in accordance with the instruction protocol. Starting from 60 to 200 µM, serial dilutions of coumarin hybrids were prepared in sterile DMSO to be treated cell lines at final concentrations 30 to 100 µM. The treated cells were incubated for 2 days, and the cellular cytotoxicity was detected by quantifying the solubilized formazan in DMSO at 570 nm. The inhibition concentration of 50 (IC50) was calculated from the cytotoxicity% curve using GraphPad prism 9.
(§5) Cancer cell selectivity index of Coumarin hybrids samples were measured as explained by, with a minor modification; (SI = IC50nc/IC50cc), where IC50nc refers to the value of IC50 of the coumarin hybrids compounds on normal cells, while IC50cc refers to the IC50 of the coumarin hybrids compounds on cancer cell line.

WISH cell line = assay: MTT safety assay on WISH normal cells; assay type: cell-based, Human; conditions: 2 days
Excerpt: as §3, §4

MDA-MB-231 cell line = assay: MTT anti-proliferative assay, MDA-MB-231; assay type: cell-based, Human; conditions: for IC50: MDA-MB-231, MTT, 2 days; for Selective index: SI = IC50 normal cells (WISH)/IC50 MDA-MB-231
Excerpt: as §3, §4, §5

Candida albicans = assay: Antimicrobial microplate assay (MIC), C. albicans; assay type: cell-based; conditions: two values per compound
Excerpt: as §1, §2

CaCo-2 cell line = assay: MTT anti-proliferative assay, CaCo-2; assay type: cell-based, Human; conditions: for IC50: CaCo-2, MTT, 2 days; for Selective index: SI = IC50 normal cells (WISH)/IC50 CaCo-2
Excerpt: as §3, §4, §5

A549 cell line = assay: MTT anti-proliferative assay, A549; assay type: cell-based, Human; conditions: for IC50: Homo sapiens, A549, 48 h, A549, MTT, 2 days; for Selective index: SI = IC50 normal cells (WISH)/IC50 A549
Excerpt: as §3, §4, §5

pseudomonas aeruginosa = assay: Antimicrobial microplate assay (MIC), P. aeruginosa; assay type: cell-based
Excerpt: as §1, §2

SMILES	MIC (Streptococcus mutans; Streptococcus mutans)	MIC (Streptococcus mutans)	MIC (Escherichia coli; Escherichia coli)	MIC (Escherichia coli)	MIC (Staphylococcus aureus)	MIC (Staphylococcus aureus; Staphylococcus aureus)	IC50 (HepG-2; Homo sapiens, HepG2, 48 h)	Selective index (HepG-2)	IC50 (WISH cell line; Homo sapiens, 48 h)	IC50 (MDA-MB-231 cell line; Homo sapiens, MDA-MB-231, 48 h)	Selective index (MDA-MB-231 cell line)	MIC (Candida albicans; Candida albicans)	MIC (Candida albicans)	IC50 (CaCo-2 cell line; Homo sapiens, Caco-2, 48 h)	Selective index (CaCo-2 cell line)	IC50 (A549 cell line)	Selective index (A549 cell line)	other results
O=C(NNc1ccnc2cc(Cl)ccc12)c1cc2ccccc2oc1=O [7a, N'-(7-Chloroquinolin-4-yl)-2-oxo-2H-chromene-3-carbohydrazide]	248 µM (≈ 90.7 µg/mL)	246 µM (≈ 90 µg/mL)	29 µM (≈ 10.6 µg/mL)	28 µM (≈ 10.2 µg/mL)	31 µM (≈ 11.3 µg/mL)	30 µM (≈ 11 µg/mL)	75.4 µM	1.051	79.3 µM	211 µM	0.3752	62 µM (≈ 22.7 µg/mL)	61 µM (≈ 22.3 µg/mL)	57.1 µM	1.38 and 1.39	51.7 µM	1.5 and 1.533	melting point: 294 to 296 °C
O=C(NCCNc1ccnc2cc(Cl)ccc12)c1cc2ccccc2oc1=O [7b, N-(2-((7-Chloroquinolin-4-yl)amino)ethyl)-2-oxo-2H-chromene-3-carboxamide]	100 µM (≈ 39.4 µg/mL)	103 µM (≈ 40.6 µg/mL)	45 µM (≈ 17.7 µg/mL)	43 µM (≈ 16.9 µg/mL)	22 µM (≈ 8.66 µg/mL)	20 µM (≈ 7.88 µg/mL)	88.7 µM	1.049	92.9 µM	154 µM	0.6038	28 µM (≈ 11 µg/mL)	27 µM (≈ 10.6 µg/mL)	52.8 µM	1.76 and 1.764	54.8 µM	1.6 and 1.695	melting point: 274 to 276 °C; IC50 (CaCo-2 cell line): 52.8 µM
O=C(NCCCNc1ccnc2cc(Cl)ccc12)c1cc2ccccc2oc1=O [7c, N-(3-((7-Chloroquinolin-4-yl)amino)propyl)-2-oxo-2H-chromene-3-carboxamide]	152 µM (≈ 62 µg/mL)	150 µM (≈ 61.2 µg/mL)	125 µM (≈ 51 µg/mL)	126 µM (≈ 51.4 µg/mL)	29 µM (≈ 11.8 µg/mL)	28 µM (≈ 11.4 µg/mL)	133 µM	0.8456	112 µM	51 µM	2.20 and 2.21	31 µM (≈ 12.6 µg/mL)	30 µM (≈ 12.2 µg/mL)	57.3 µM	1.969	97.4 µM	1.155	IC50 (MDA-MB-231 cell line): 51 µM
O=C(Nc1ccc(Nc2ccnc3cc(Cl)ccc23)cc1)c1cc2ccccc2oc1=O [7d, N-(4-((7-Chloroquinolin-4-yl)amino)phenyl)-2-oxo-2H-chromene-3-carboxamide]	130 µM (≈ 57.4 µg/mL)	132 µM (≈ 58.3 µg/mL)	46 µM (≈ 20.3 µg/mL)	45 µM (≈ 19.9 µg/mL)	30 µM (≈ 13.3 µg/mL)	29 µM (≈ 12.8 µg/mL)	82.8 µM	1.67 and 1.671	138 µM	103 µM	1.351	62 µM (≈ 27.4 µg/mL)	60 µM (≈ 26.5 µg/mL)	51.6 µM	2.666	–	0.67 and 0.6789	IC50 (HepG-2): 82.8 µM; IC50 (CaCo-2 cell line): 52 µM
O=C(Nc1ccc(Cc2ccc(Nc3ccnc4cc(Cl)ccc34)cc2)cc1)c1cc2ccccc2oc1=O [7e, N-(4-(4-((7-Chloroquinolin-4-yl)amino)benzyl)phenyl)-2-oxo-2H-chromene-3-carboxamide]	160 µM (≈ 85.1 µg/mL)	162 µM (≈ 86.2 µg/mL)	19 µM (≈ 10.1 µg/mL)	16 µM (≈ 8.51 µg/mL)	24 µM (≈ 12.8 µg/mL)	25 µM (≈ 13.3 µg/mL)	351 µM	0.2658	93.1 µM	70.5 µM	1.32	25 µM (≈ 13.3 µg/mL)	26 µM (≈ 13.8 µg/mL)	86.3 µM	1.079	152 µM	0.6129	–
O=C(NCCNc1c2ccccc2nc2ccccc12)c1cc2ccccc2oc1=O [10b, N-(2-(Acridin-9-ylamino)ethyl)-2-oxo-2H-chromene-3-carboxamide]	3.2 to 66 µM (≈ 1.31 to 27 µg/mL)	5 µM and 5.5 µM	–	–	3.2 µM (≈ 1.31 µg/mL)	3.2 to 66 µM (≈ 1.31 to 27 µg/mL)	–	–	–	–	–	–	–	–	–	–	–	MIC (pseudomonas aeruginosa): 14.8 µM (≈ 6.06 µg/mL)
O=C(NCCCNc1c2ccccc2nc2ccccc12)c1cc2ccccc2oc1=O [10c, N-(3-(Acridin-9-ylamino)propyl)-2-oxo-2H-chromene-3-carboxamide]	–	–	–	–	–	–	107 µM	0.5533	56.7 µM	109 µM	0.8462	–	–	–	0.77	130 µM	–	melting point: 261 to 263 °C; IC50 (CaCo-2 cell line): 56.7 µM; IC50 (CaCo-2 cell line; listed as 10): 145 µM; Selective index (CaCo-2 cell line; listed as 10): 0.7785; MIC (pseudomonas aeruginosa): 15.4 µM (≈ 6.52 µg/mL)
Cn1c2nc3ccccc3c-2c(NCCNC(=O)c2cc3ccccc3oc2=O)c2ccccc21 [13b, N-(2-((5-Methyl-5H-indolo[2,3, b]quinolin-11-yl)amino)ethyl)-2-oxo-2H-chromene-3-carboxamide]	–	–	–	–	–	–	–	–	–	–	–	–	0.0011 µM and 0.0014 µM	–	–	–	–	–
Cn1c2nc3ccccc3c-2c(NCCCNC(=O)c2cc3ccccc3oc2=O)c2ccccc21 [13c, N-(3-((5-methyl-5H-indolo[2,3-b]quinolin-11-yl)amino)propyl)-2-oxo-2H-chromene-3-carboxamide]	–	–	–	–	–	–	71 µM	–	95.9 µM	89.9 µM	–	–	–	84.8 µM	–	65 µM	–	–
O=c1ccc2ccccc2o1 [Ct, coumarin]	240 µM (≈ 35.1 µg/mL)	241 µM (≈ 35.2 µg/mL)	59 µM (≈ 8.62 µg/mL)	58 µM (≈ 8.48 µg/mL)	63 µM (≈ 9.21 µg/mL)	62 µM (≈ 9.06 µg/mL)	232 µM	0.7613	176 µM	111 µM	1.599	30 µM (≈ 4.38 µg/mL)	29 µM (≈ 4.24 µg/mL)	99.5 µM	1.701	260 µM	0.6915	–
COc1cccc2c1C(=O)c1c(O)c3c(c(O)c1C2=O)C[C@@](O)(C(=O)CO)C[C@@H]3O[C@H]1C[C@H](N)[C@H](O)[C@H](C)O1 [DOX, doxorubicin, reference compound]	–	–	–	–	–	–	1.18 µM	1.653	1.76 µM	0.655 µM	1.954	–	–	2.91 µM	0.6148	3.78 µM	0.7653	–
O=C(O)c1cc2ccccc2oc1=O [compound 1, coumarin-3-carboxylic acid, reference compound]	17 µM (≈ 3.23 µg/mL)	16.65 µM (≈ 3.17 µg/mL)	20 µM (≈ 3.8 µg/mL)	21.76 µM (≈ 4.14 µg/mL)	8.5 µM (≈ 1.62 µg/mL)	8 µM (≈ 1.52 µg/mL)	924 µM	0.3617	334 µM	132 µM	2.521	10 µM (≈ 1.9 µg/mL)	9.8 µM (≈ 1.86 µg/mL)	1110 µM	0.3027	351 µM	0.9497	IC50 (WISH cell line): 334 µM

Reference: PMC10733349, “Synthesis and in-vitro anti-proliferative with antimicrobial activity of new coumarin containing heterocycles hybrids” (Scientific Reports, 2023)
